Source: patent US7348402B2, “Antimicrobial peptide, its analogs and antimicrobial composition comprising them” (priority 2002, dated 2008)
No end group written: not given here.

How the values were obtained:
Assay type in all cases: cell-based
[1] = system: Candida albicans (ATCC 10231); conditions: ATCC 10231, 12 h
Source text: (§1) The microorganisms used in the present invention include Gram-positive bacteria such as Bacillus subtilis (ATCC 62037), Staphylococcus aureus (ATCC 15752) and Streptococcus mutans (ATCC 25175), Gram-negative bacteria such as Escherichia coli (ATCC 27325), Salmonella enteritidis (ATCC 15277) and Pseudomonas putida (ATCC 17426) and fungi such as Candida albicans (ATCC 10231), Saccharomyces cerevisiae (ATCC 44774) and Cryptococcus neoformans (ATCC 34881), obtained from American Type Culture Collection (ATCC).
(§2) The antimicrobial activity of the peptides prepared in Example 1 was determined against microorganisms by 96-well microdilution minimal inhibitory concentration assay. After overnight culturing the bacteria and fungi in trypticase soy broth (TSB) and Saboraud (SAB) at 37° C. and 30° C., respectively, they were inoculated in new media and cultured for 2 hours to exponential growth phase. After diluting the microorganisms to 10^5 per 1 ml, 190 μl was inoculated in each 96-well plate, and 10 μl of serially diluted peptides were added in each well.

[2] = system: Salmonella enteritidis (ATCC 15277); conditions: ATCC 15277, 12 h
Source text: as §1, §2

[3] = system: Pseudomonas putida (ATCC 17426); conditions: ATCC 17426, 12 h
Source text: as §1, §2

[4] = system: Staphylococcus aureus (ATCC 15752); conditions: ATCC 15752, 12 h
Source text: as §1, §2

[5] = system: Saccharomyces cerevisiae (ATCC 44774); conditions: ATCC 44774, 12 h
Source text: as §1, §2

[6] = system: Escherichia coli (ATCC 27325); conditions: ATCC 27325, 12 h
Source text: as §1, §2

[7] = system: Bacillus subtilis (ATCC 62037); conditions: ATCC 62037, 12 h
Source text: as §1, §2

[8] = system: Cryptococcus neoformans (ATCC 34881); conditions: ATCC 34881, 12 h
Source text: as §1, §2

[9] = system: Streptococcus mutans (ATCC 25175); conditions: ATCC 25175, 12 h
Source text: as §1, §2

Row | Substance | Minimum Inhibitory Concentration [1] [µg/mL] | Minimum Inhibitory Concentration [2] [µg/mL] | Minimum Inhibitory Concentration [3] [µg/mL] | Minimum Inhibitory Concentration [4] [µg/mL] | Minimum Inhibitory Concentration [5] [µg/mL] | Minimum Inhibitory Concentration [6] [µg/mL] | Minimum Inhibitory Concentration [7] [µg/mL] | Minimum Inhibitory Concentration [8] [µg/mL] | Minimum Inhibitory Concentration [9] [µg/mL]
1 | KVLRKVLRKVLRNWPIGKVLR [compound 65] | 1 | 2 | 1 | 1 | 1 | 1 | 2 | 1 | 2
2 | KVLRKVLRKVLRQWPIGKVLR-NH2 [compound 71] | 1 | 1 | 1 | 1 | 2 | 1 | 1 | 1 | 1
3 | KVLRNWPIGKVLRKVLRKVLR [compound 31] | 1 | 1 | 1 | 1 | 2 | 1 | 1 | 1 | 2
4 | KVVKKVVKKVVKNWPIGKVVK [compound 53] | 2 | 1 | 1 | 1 | 1 | 1 | 1 | 1 | 1
5 | KVVKKVVKKVVKQWPIGKVVK [compound 36] | 2 | 1 | 1 | 1 | 2 | 2 | 1 | 1 | 2
6 | KVVKNWPIGKVVKKVVKKVVK [compound 19] | 1 | 1 | 1 | 1 | 2 | 2 | 2 | 1 | 1
7 | KVVKQWPIGKVVKKVVKKVVK [compound 2] | 1 | 1 | 1 | 1 | 2 | 1 | 1 | 1 | 2
8 | KVVRKVVRKVVRQWPIGKVVR [compound 44] | 2 | 1 | 1 | 1 | 1 | 1 | 2 | 1 | 2
9 | KVVRQWPIGKVVRKVVRKVVR [compound 10] | 2 | 1 | 1 | 1 | 2 | 1 | 1 | 1 | 2
10 | RLLKQWPIGRLLKRLLKRLLK [compound 11] | 1 | 2 | 1 | 1 | 2 | 1 | 1 | 1 | 2
11 | RLLKRLLKRLLKQWPIGRLLK [compound 45] | 2 | 2 | 1 | 1 | 2 | 1 | 1 | 2 | 1
12 | RLLRNWPIGRLLRRLLRRLLR [compound 20] | 1 | 2 | 1 | 1 | 2 | 1 | 2 | 1 | 2
13 | RLLRQWPIGRLLRRLLRRLLR [compound 3] | 1 | 1 | 1 | 1 | 2 | 2 | 2 | 1 | 1
14 | RLLRRLLRRLLRNWPIGRLLR [compound 54] | 1 | 1 | 1 | 1 | 2 | 2 | 1 | 1 | 2
15 | RLLRRLLRRLLRQWPIGRLLR [compound 37] | 2 | 2 | 1 | 1 | 2 | 1 | 1 | 2 | 1
16 | RLVKNWPIGRLVKRLVKRLVK [compound 32] | 1 | 1 | 1 | 1 | 2 | 1 | 1 | 1 | 2
17 | RLVKNWPIGRLVKRLVKRLVK-NH2 [compound 70] | 1 | 1 | 1 | 1 | 1 | 1 | 1 | 1 | 2
18 | RLVKRLVKRLVKNWPIGRLVK [compound 66] | 1 | 1 | 1 | 1 | 2 | 2 | 1 | 1 | 2
19 | RLVRNWPIGRLVRRLVRRLVR [compound 24] | 2 | 2 | 1 | 1 | 2 | 1 | 1 | 1 | 1
20 | RLVRRLVRRLVRNWPIGRLVR [compound 58] | 2 | 1 | 1 | 1 | 2 | 1 | 1 | 1 | 1
